In brackets after ≈: the same amount, converted by molar mass.
Legend:
Format in all cases: cell-based
[1] = test system: Bacillus anthracis, Sterne 34F2; test: microbe, parasite or virus in culture; settings: STERNE34F2, read-out: MIC B.a.
[2] = test system: Bacillus subtilis (ATCC 23857); test: MIC determination, microbroth dilution; settings: ATCC23857; Bacillus subtilis (ATCC 23857); read-out: MIC B.s.
[3] = test system: Enterococcus faecalis (ATCC 33186); test: MIC determination, microbroth dilution; settings: ATCC33186; Enterococcus faecalis (ATCC 33186); read-out: MIC E.f.
[4] = test system: Staphylococcus aureus (ATCC 29213); test: MIC determination, microbroth dilution; settings: ATCC29213; Staphylococcus aureus (ATCC 29213); read-out: MIC S.a.
[5] = test system: MRSA, Staphylococcus aureus (NRS70); test: MIC determination, microbroth dilution; settings: Staphylococcus aureus (NRS70); read-out: MIC MRSA
[6] = test system: Streptococcus pneumoniae (R6); test: MIC determination, microbroth dilution; settings: Streptococcus pneumoniae (R6); read-out: MIC S. pn.
[7] = test system: Streptococcus pyogenes (ATCC 700294); test: MIC determination, microbroth dilution; settings: ATCC700294; Streptococcus pyogenes (ATCC 700294); read-out: MIC S. py.
[8] = test system: M. tuberculosis clinical isolates; test: microbe, parasite or virus in culture; settings: Mycobacterium tuberculosis, H37RV, read-out: MIC H37Rv

Compound	MIC [1] [µg/mL]	MIC [2] [µg/mL]	MIC [3] [µg/mL]	MIC [4] [µg/mL]	MIC [5] [µg/mL]	MIC [6] [µg/mL]	MIC [7] [µg/mL]	MIC [8] [µg/mL]
CN[C@@H]1[C@H](O)[C@H](NC)C2O[C@]3(O)C(OC2[C@H]1O)O[C@H](C)C[C@@]3(O)CNCc1ccc(CO)o1 (stereo partly shown) [compound 42]	> 200	50 (≈ 106 µM)	200 (≈ 422 µM)	200 (≈ 422 µM)	> 200	50 (≈ 106 µM)	50 (≈ 106 µM)	25 (≈ 52.8 µM)
CN[C@@H]1[C@H](O)[C@H](NC)C2O[C@]3(O)C(OC2[C@H]1O)O[C@H](C)C[C@@]3(O)CNCc1ccc2ccn(C)c2c1 (stereo partly shown) [compound 43]	> 200	12.5 (≈ 24.7 µM)	100 (≈ 197 µM)	50 (≈ 98.7 µM)	12.5 (≈ 24.7 µM)	200 (≈ 395 µM)	100 (≈ 197 µM)	100 (≈ 197 µM)
CN[C@@H]1[C@H](O)[C@H](NC)C2O[C@]3(O)C(OC2[C@H]1O)O[C@H](C)C[C@@]3(O)CNCc1ccc(Cc2ccccc2)cc1 (stereo partly shown) [compound 44]	> 200	25 (≈ 46 µM)	25 (≈ 46 µM)	50 (≈ 92 µM)	25 (≈ 46 µM)	6.25 (≈ 11.5 µM)	3.13 (≈ 5.76 µM)	100 (≈ 184 µM)
CN[C@@H]1[C@H](O)[C@H](NC)C2O[C@]3(O)C(OC2[C@H]1O)O[C@H](C)C[C@@]3(O)CNCc1ccc(OC)c2c1CCCC2 (stereo partly shown) [compound 45]	> 200	50 (≈ 93 µM)	50 (≈ 93 µM)	100 (≈ 186 µM)	200 (≈ 372 µM)	25 (≈ 46.5 µM)	25 (≈ 46.5 µM)	200 (≈ 372 µM)
CN[C@@H]1[C@H](O)[C@H](NC)C2O[C@]3(O)C(OC2[C@H]1O)O[C@H](C)C[C@@]3(O)CNCc1ccc(C)o1 (stereo partly shown) [compound 46]	> 200	50 (≈ 109 µM)	100 (≈ 219 µM)	50 (≈ 109 µM)	> 200	12.5 (≈ 27.3 µM)	12.5 (≈ 27.3 µM)	25 (≈ 54.6 µM)
CN[C@@H]1[C@H](O)[C@H](NC)C2O[C@]3(O)C(OC2[C@H]1O)O[C@H](C)C[C@@]3(O)CNCCC(C)c1ccccc1 (stereo partly shown) [compound 47]	> 200	12.5 (≈ 25.2 µM)	25 (≈ 50.4 µM)	25 (≈ 50.4 µM)	100 (≈ 202 µM)	25 (≈ 50.4 µM)	25 (≈ 50.4 µM)	6.3 (≈ 12.7 µM)
CN[C@@H]1[C@H](O)[C@H](NC)C2O[C@]3(O)C(OC2[C@H]1O)O[C@H](C)C[C@@]3(O)CNCc1cccn1C (stereo partly shown) [compound 48]	> 200	12.5 (≈ 27.4 µM)	> 200	200 (≈ 438 µM)	200 (≈ 438 µM)	100 (≈ 219 µM)	200 (≈ 438 µM)	200 (≈ 438 µM)
CN[C@@H]1[C@H](O)[C@H](NC)C2O[C@]3(O)C(OC2[C@H]1O)O[C@H](C)C[C@@]3(O)CNCC(C)c1ccccc1 (stereo partly shown) [compound 49]	> 200	12.5 (≈ 26 µM)	6.25 (≈ 13 µM)	50 (≈ 104 µM)	12.5 (≈ 26 µM)	12.5 (≈ 26 µM)	12.5 (≈ 26 µM)	100 (≈ 208 µM)
